# Laboratory results as given in the supplement of paper PMC13380429.
# Key:
# Details in all cases: 72 h
# HepG2 [1] = experiment: relative viability EC50 (midpoint between 100% and the lowest measured viability); higher = less toxic
# Calu-3 [2] = experiment: as above
# U2OS [3] = experiment: as above
# Vero E6 [4] = experiment: as above
# Caco-2 [5] = experiment: as above
# HepG2 [6] = experiment: drug sensitivity score (DSS) for viability; higher = more toxic; extreme values may be limits of the assay
# Calu-3 [7] = experiment: as above
# U2OS [8] = experiment: as above
# Vero E6 [9] = experiment: as above
# Caco-2 [10] = experiment: as above
# HepG2 [11] = experiment: cell viability relative to DMSO; higher = less toxic
# Calu-3 [12] = experiment: as above
# U2OS [13] = experiment: as above
# Vero E6 [14] = experiment: as above
# Caco-2 [15] = experiment: as above
SMILES,relative viability EC50 (HepG2 [1]) [µM],relative viability EC50 (Calu-3 [2]) [µM],relative viability EC50 (U2OS [3]) [µM],relative viability EC50 (Vero E6 [4]) [µM],relative viability EC50 (Caco-2 [5]) [µM],drug sensitivity score (HepG2 [6]),drug sensitivity score (Calu-3 [7]),drug sensitivity score (U2OS [8]),drug sensitivity score (Vero E6 [9]),drug sensitivity score (Caco-2 [10]),cell viability (HepG2 [11]; 1 nM) [%],cell viability (HepG2 [11]; 10 nM) [%],cell viability (HepG2 [11]; 100 nM) [%],cell viability (HepG2 [11]; 1000 nM) [%],cell viability (HepG2 [11]; 10000 nM) [%],cell viability (Calu-3 [12]; 1 nM) [%],cell viability (Calu-3 [12]; 10 nM) [%],cell viability (Calu-3 [12]; 100 nM) [%],cell viability (Calu-3 [12]; 1000 nM) [%],cell viability (Calu-3 [12]; 10000 nM) [%],cell viability (U2OS [13]; 1 nM) [%],cell viability (U2OS [13]; 10 nM) [%],cell viability (U2OS [13]; 100 nM) [%],cell viability (U2OS [13]; 1000 nM) [%],cell viability (U2OS [13]; 10000 nM) [%],cell viability (Vero E6 [14]; 1 nM) [%],cell viability (Vero E6 [14]; 10 nM) [%],cell viability (Vero E6 [14]; 100 nM) [%],cell viability (Vero E6 [14]; 1000 nM) [%],cell viability (Vero E6 [14]; 10000 nM) [%],cell viability (Caco-2 [15]; 1 nM) [%],cell viability (Caco-2 [15]; 10 nM) [%],cell viability (Caco-2 [15]; 100 nM) [%],cell viability (Caco-2 [15]; 1000 nM) [%],cell viability (Caco-2 [15]; 10000 nM) [%]
CO[C@H]1CC=C2CCN3CCC4=C(CC(=O)OC4)[C@]23C1 [NSC-9965],> 10,> 10,> 10,> 10,> 10,0,0,0,0,0,99.9,95,100,100,104,101,102,94.3,101,111,101,105,98.2,106,108,92.5,95.8,95,91.6,105,100,99.6,101,105,108
O=c1cc(N2CCOCC2)oc2c1ccc1ccccc12 [NU-7026],> 10,> 10,> 10,> 10,> 10,0.4,0.7,0,0.1,0.5,106,93.4,92.9,90.8,88,98.4,107,102,97.6,82.8,98.9,101,96.2,99.6,95.7,99,103,98.3,101,86.2,94.3,113,91,99.2,82.7
O=C(Nc1ccc2[nH]ccc2c1)c1ccccc1 [OAC2],> 10,> 10,> 10,> 10,> 10,0,0,0,0,0,104,106,97.3,99.7,101,102,99,104,99.3,96.6,103,97.2,97.1,104,95.3,92.3,95.7,99.6,92.8,95.5,91.9,91.3,95.1,98.7,94.5
CC(C)Oc1ccc(-c2nc(-c3cccc4c3CC[C@H]4NCCC(=O)O)no2)cc1C#N [RP-001],> 10,> 10,> 10,> 10,> 10,0,0,0,0,0,96.9,97.6,94.2,104,110,95.9,99.8,87.5,101,102,102,95.1,103,106,112,95,97.7,90.2,101,104,95,94.7,94.1,95.7,98.2
O=C(Nc1ccccc1F)N[C@H]1N=C(c2ccccc2)c2ccccc2NC1=O [RSV604],> 10,> 10,> 10,> 10,> 10,0,0,0,0,0.1,109,110,95.9,96.5,109,94.2,90.5,99.2,102,89.8,98.5,98.5,98.5,105,100,95.1,101,95.8,95.3,92,92.5,107,97.2,102,85.2
O[C@H]1CC[C@H](Nc2nc(-c3ccccc3)nc3[nH]ccc23)CC1 [SLV-320],> 10,> 10,> 10,> 10,> 10,0,0,0,0,0,92.8,106,94.9,99.2,91.7,99.5,93.9,99.5,90.8,102,99.5,94.4,97.7,95.7,96.9,104,109,101,99,91.4,102,94.4,102,102,102
C[C@H](Nc1cc(NS(=O)(=O)N2CCC2)nc(SCc2cccc(F)c2F)n1)[C@@H](O)CO [SRT3190],> 10,> 10,> 10,> 10,> 10,0,0,0,0,0,97.6,90.1,91,111,96,104,97.1,99.9,89.9,98.5,98.4,95.2,100,93.2,94.5,102,100,95.2,98.5,96.4,103,91,93.3,96,101
